Positions of bridges follow the written chain, without caps; N, C: chain ends. Residues, ends and D or L forms follow the SMILES beside them.
Key:
[1] = biological activity assay according to the method of Japanese Provisional Patent Publication No. 123500/1985; format: in vivo
Method: The crude (Oct¹, Cys(CA)⁷)-CCT obtained was dissolved in a 1 M acetic acid (5 mg/ml) and purified by the reverse phase high performance liquid chromatography. Chemcopack ODS-H (trade name, ø: 10 mm x 250 mm) column produced by Chemco Co. was used, with the eluents employed being water (100) - 10 % TFA (1) for the eluent A and water (40) -acetonitrile (60) - 10 % TFA (1) for the eluent B, and the elution was effected under the linear concentration gradient from the eluent A to the eluent B. Here, the numerals within bracckets represent volume ratios. The fraction corresponding to (Oct¹, Cys(CA)⁷)-CCT was collected and lyophilized to obtain 2.8 mg of white powder. The biological activity of the white powder obtained was assayed according to the method as described in Japanese Provisional Patent Publication No. 123500/1985. […]

[2] = stability test in solution (heat treatment, remaining peak area by reverse phase HPLC); format: physicochemical; details: 0.1 M sodium citrate buffer (pH 6.0), 10 µg/ml, sealed tube at 80 °C for 24 hours; stated in words relative to Example 1
Method: The (Oct¹, Cys(CA)⁷)-CCT was dissolved in 0.1 M sodium citrate buffer (pH 6.0) to a concentration of 10 µg/ml. One ml of this solution was left to stand in a sealed tube at 80 °C for 24 hours. By analysis according to the reverse phase HPLC by use of the measurement conditions (1), the eluted peak area A of the remaining (Oct¹, Cys(CA)⁷)-CCT was determined. Similarly, the eluted peak area B of the (Oct¹, Cys(CA)⁷)-CCT in the sample solution not subjected to the heat treatment was determined, and the ratio of A to B (%) was defined as the index.

[3] = method of Japanese Provisional Patent Publication No. 123500/1985
[4] = stated in words relative to (Oct¹, Cys(CA)⁷)-CCT of Example 1

Row | Compound | biological activity [1, 3] [MRC U/mg] | biological activity [1, 4] | stability (ratio of A to B (%), remaining peak area) [2]
1 | (Oct¹, Thr³, Cys(CA)⁷)-CCT | 7800 |  | 
2 | (Oct¹, Cys(CA)⁷)-CCT | 5400 | equal to that obtained in Example 1 | 
3 | CC(C)C[C@H](NC(=O)[C@H](CCCCN)NC(=O)CNC(=O)[C@H](CC(C)C)NC(=O)[C@@H](NC(=O)[C@@H]1CSSC[C@H](N)C(=O)N[C@@H](C)C(=O)N[C@@H](CO)C(=O)N[C@@H](CC(C)C)C(=O)N[C@@H](CO)C(=O)N[C@@H]([C@@H](C)O)C(=O)N1)C(C)C)C(=O)N[C@@H](CO)C(=O)N[C@@H](CCC(N)=O)C(=O)N[C@@H](CCC(=O)O)C(=O)N[C@@H](CC(C)C)C(=O)N[C@@H](Cc1c[nH]cn1)C(=O)N[C@@H](CCCCN)C(=O)N[C@@H](CC(C)C)C(=O)N[C@@H](CCC(N)=O)C(=O)N[C@H](C(=O)N[C@@H](Cc1ccc(O)cc1)C(=O)N1CCC[C@H]1C(=O)N[C@@H](CCCNC(=N)N)C(=O)N[C@H](C(=O)N[C@@H](CC(=O)O)C(=O)N[C@H](C(=O)NCC(=O)N[C@@H](C)C(=O)NCC(=O)N[C@H](C(=O)N1CCC[C@H]1C(N)=O)[C@@H](C)O)C(C)C)[C@@H](C)O)[C@@H](C)O [natural type CCT, reference compound] (H-CASLSTCVLGKLSQELHKLQTYPRTDVGAGTP-NH2; disulfide 1-7) | 4500 |  | 
4 | (Oct¹, Ala³, Cys(CA)⁷)-CCT | 6100 |  | 
5 | (Oct¹, Cys⁷)-CCT |  | substantially equal to those of (Oct¹, Cys(CA)⁷)-CCT of Example 1 | substantially equal to those of (Oct¹, Cys(CA)⁷)-CCT of Example 1
6 | (Oct¹, Cys(Acm)⁷)-CCT | 5500 |  | 
7 | (Oct¹, Cys(Acm)⁷)-ECT | 5400 |  | 
8 | (pGlu¹, Cys(CA)⁷)-CCT |  | substantially equal to those of (Oct¹, Cys(CA)⁷)-CCT of Example 1 | substantially equal to those of (Oct¹, Cys(CA)⁷)-CCT of Example 1
